Data on 15 compounds can be found in ChEMBL document CHEMBL1201862, “PubChem BioAssay data set” (2004).

Test [1] in a line: A cytotoxicity screen of small molecule inhibitors of the PhoP region in Salmonella typhi identified in the primary screen. [Related pubchem assays: 1850, 1864, 1985 ]. It is filed as functional.
The target of test [2] is Aspartyl aminopeptidase (Plasmodium falciparum 3D7, UniProt Q8I2J3). Nature of the test: Counterscreen for inhibitors of M1 and M17 aminopeptidases: QFRET-based biochemical high throughput dose response assay for inhibitors of the Plasmodium falciparum M18 Aspartyl Aminopeptidase (PFM18AAP). [Related PubChem assays: 1619 (Screening assay (M17LAP inhibitors).), 1445 (Screening assay (M1AAP inhibitors).)].
Chain of Aspartyl aminopeptidase (Q8I2J3 whole entry): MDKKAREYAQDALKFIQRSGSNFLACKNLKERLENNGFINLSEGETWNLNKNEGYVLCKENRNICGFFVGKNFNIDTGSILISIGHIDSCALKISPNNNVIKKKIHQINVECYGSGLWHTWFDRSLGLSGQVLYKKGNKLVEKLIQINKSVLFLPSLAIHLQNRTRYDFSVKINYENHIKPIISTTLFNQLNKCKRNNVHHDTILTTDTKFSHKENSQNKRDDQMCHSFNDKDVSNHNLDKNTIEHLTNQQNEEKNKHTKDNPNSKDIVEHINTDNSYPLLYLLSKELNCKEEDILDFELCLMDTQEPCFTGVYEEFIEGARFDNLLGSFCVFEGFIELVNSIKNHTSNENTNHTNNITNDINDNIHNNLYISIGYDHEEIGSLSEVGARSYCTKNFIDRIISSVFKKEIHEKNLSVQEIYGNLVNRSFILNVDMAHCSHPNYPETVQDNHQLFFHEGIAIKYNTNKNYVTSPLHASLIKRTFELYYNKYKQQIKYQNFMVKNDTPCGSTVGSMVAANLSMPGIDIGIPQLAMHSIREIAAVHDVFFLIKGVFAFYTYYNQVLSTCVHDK

The target in test [3] is Procathepsin L (Homo sapiens, UniProt P07711). The test can be described thus: cathepsin L inhibitors, dose response, counter-screen for M1/M17 aminopeptidase inhibitor project, biochemical, QFRET, 1536-well (AID 2214). Background: The purpose of a counterscreen is to sort out artefacts and off-target activity.
Chain of Procathepsin L (P07711 whole entry): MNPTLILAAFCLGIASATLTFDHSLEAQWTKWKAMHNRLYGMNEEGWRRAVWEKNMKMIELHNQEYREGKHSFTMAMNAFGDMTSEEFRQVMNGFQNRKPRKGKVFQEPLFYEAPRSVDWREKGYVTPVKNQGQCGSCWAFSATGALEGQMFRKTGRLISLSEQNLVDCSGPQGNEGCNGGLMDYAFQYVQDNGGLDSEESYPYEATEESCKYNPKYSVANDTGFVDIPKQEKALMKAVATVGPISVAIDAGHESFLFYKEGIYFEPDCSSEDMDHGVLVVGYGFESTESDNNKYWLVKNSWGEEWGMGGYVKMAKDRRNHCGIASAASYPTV
The target in test [4] is T1, Leucine aminopeptidase (Plasmodium falciparum 3D7, UniProt Q8IL11).
T1 sequence (Q8IL11 whole entry): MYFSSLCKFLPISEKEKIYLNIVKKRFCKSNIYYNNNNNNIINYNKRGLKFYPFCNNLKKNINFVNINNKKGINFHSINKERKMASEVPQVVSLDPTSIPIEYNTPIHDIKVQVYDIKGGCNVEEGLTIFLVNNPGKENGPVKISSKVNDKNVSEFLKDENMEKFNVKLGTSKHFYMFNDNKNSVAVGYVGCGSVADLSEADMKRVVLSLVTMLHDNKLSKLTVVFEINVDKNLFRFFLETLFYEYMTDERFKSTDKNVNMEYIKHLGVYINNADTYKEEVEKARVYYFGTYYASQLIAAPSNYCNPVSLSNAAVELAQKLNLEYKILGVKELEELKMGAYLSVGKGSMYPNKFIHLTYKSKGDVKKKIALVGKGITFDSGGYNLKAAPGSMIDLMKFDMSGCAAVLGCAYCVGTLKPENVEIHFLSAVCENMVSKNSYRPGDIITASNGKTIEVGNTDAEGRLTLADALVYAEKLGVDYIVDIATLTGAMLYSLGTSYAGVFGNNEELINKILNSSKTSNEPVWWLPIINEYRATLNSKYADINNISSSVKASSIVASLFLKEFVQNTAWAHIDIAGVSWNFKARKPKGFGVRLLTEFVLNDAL
The test can be described thus: P. falciparum M17LAP inhibitors, primary screen, biochemical, fluorogenic H-Leu-NHMec substrate, 1536-well (AID 1619). It is filed as functional.

For test [5], the target named is T2, Eukaryotic translation initiation factor 2-alpha kinase 3 (Homo sapiens, UniProt Q9NZJ5).
T2 sequence (Q9NZJ5 whole entry): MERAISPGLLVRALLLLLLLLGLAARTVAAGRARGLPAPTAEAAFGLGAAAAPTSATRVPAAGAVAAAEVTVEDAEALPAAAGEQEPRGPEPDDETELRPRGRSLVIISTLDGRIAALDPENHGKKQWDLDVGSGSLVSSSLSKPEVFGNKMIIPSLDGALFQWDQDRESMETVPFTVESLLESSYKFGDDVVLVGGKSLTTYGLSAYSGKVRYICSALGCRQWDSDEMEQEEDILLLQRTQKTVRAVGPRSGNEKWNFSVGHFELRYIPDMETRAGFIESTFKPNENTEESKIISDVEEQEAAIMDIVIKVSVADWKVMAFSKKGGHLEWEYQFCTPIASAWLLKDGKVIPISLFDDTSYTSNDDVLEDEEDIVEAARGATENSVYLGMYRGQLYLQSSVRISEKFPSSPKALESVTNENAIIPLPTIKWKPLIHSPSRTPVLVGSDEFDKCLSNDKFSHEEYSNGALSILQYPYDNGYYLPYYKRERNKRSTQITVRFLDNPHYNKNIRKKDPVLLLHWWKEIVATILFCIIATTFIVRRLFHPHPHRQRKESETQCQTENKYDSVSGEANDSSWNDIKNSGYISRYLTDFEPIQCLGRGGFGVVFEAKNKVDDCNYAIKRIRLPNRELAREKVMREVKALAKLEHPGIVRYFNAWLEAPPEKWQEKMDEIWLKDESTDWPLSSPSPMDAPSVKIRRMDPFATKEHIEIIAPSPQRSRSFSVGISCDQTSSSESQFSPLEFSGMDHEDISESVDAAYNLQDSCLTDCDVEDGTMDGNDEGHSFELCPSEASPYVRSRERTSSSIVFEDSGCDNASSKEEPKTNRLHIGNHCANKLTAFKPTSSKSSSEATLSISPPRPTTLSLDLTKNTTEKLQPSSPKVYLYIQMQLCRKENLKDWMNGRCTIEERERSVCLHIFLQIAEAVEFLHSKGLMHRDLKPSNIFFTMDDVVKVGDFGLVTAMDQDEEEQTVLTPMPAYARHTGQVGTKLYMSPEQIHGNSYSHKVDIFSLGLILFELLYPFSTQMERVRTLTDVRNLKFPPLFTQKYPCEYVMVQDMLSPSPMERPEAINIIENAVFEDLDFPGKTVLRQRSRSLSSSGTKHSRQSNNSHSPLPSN
The test can be described thus: Counterscreen assay for PERK inhibitors: Dose response cell-based high throughput screening assay to measure inhibition of PERK at 6 hours. [Related pubchem assays: 1522, 1416 ]. Type of test: functional.

The target in test [6] is T2, Eukaryotic translation initiation factor 2-alpha kinase 3. Nature of the test: Dose response cell-based high-throughput screening assay to measure PERK inhibition. [Related pubchem assays: 1416 ]. It is filed as functional.
Test [7] in a line: cytotoxicity in KRAS-transformed pancreatic duct cells, primary screen, cell-based, fluorescence, HTS (AID 431).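 Note: cell line used: HPDE-C7K.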 It is filed as functional. The following applies: Homo sapiens.
The nature of test [8]: cytotoxicity in HPDE-C7 cells, cell-based, fluorescence, HTS (AID 430). Type of test: functional. The following applies: Homo sapiens.
Test [9] relates to HeLa. The test can be described thus: Cytotoxicity counterscreen assay for transcriptional activators of heat shock protein 70 (Hsp70). [Related pubchem assays: 1203, 1252 ]. Type of test: functional. The following applies: Homo sapiens.
Test [10] deals with Transitional endoplasmic reticulum ATPase (Homo sapiens, UniProt P55072). Nature of the test: p97 ATPase inhibitors, dose response, biochemical (AID 1534).
Test [11] addresses Transitional endoplasmic reticulum ATPase (Homo sapiens, UniProt P55072, C522A). Nature of the test: C522A mutant p97 ATPase inhibitors, dose response, counter-screen for p97 inhibitor project, biochemical, luminescence (AID 1544).
In test [12] the target is Peroxisome proliferator-activated receptor gamma/Nuclear receptor coactivator 1 (Homo sapiens, UniProt P37231). It is filed as functional.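 Note: agonist potency as compounds enhance coactivator SRC-1 recruitment to PPARgamma.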
Chain of Peroxisome proliferator-activated receptor gamma/Nuclear receptor coactivator 1 (P37231 whole entry): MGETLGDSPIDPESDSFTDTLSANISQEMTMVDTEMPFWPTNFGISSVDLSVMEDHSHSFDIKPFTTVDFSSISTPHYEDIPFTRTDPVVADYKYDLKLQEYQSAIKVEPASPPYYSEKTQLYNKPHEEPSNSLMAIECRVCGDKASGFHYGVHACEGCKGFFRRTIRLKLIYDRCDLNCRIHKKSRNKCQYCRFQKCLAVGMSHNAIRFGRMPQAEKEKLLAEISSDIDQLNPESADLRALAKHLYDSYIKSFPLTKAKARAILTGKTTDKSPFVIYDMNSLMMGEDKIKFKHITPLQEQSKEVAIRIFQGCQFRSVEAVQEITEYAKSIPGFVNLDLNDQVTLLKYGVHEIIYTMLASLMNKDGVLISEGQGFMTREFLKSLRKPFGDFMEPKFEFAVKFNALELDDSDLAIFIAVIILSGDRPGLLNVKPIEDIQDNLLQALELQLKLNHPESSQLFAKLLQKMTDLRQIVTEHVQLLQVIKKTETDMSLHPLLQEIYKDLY
Chain of Peroxisome proliferator-activated receptor gamma/Nuclear receptor coactivator 1 (Q15788 whole entry, further chain): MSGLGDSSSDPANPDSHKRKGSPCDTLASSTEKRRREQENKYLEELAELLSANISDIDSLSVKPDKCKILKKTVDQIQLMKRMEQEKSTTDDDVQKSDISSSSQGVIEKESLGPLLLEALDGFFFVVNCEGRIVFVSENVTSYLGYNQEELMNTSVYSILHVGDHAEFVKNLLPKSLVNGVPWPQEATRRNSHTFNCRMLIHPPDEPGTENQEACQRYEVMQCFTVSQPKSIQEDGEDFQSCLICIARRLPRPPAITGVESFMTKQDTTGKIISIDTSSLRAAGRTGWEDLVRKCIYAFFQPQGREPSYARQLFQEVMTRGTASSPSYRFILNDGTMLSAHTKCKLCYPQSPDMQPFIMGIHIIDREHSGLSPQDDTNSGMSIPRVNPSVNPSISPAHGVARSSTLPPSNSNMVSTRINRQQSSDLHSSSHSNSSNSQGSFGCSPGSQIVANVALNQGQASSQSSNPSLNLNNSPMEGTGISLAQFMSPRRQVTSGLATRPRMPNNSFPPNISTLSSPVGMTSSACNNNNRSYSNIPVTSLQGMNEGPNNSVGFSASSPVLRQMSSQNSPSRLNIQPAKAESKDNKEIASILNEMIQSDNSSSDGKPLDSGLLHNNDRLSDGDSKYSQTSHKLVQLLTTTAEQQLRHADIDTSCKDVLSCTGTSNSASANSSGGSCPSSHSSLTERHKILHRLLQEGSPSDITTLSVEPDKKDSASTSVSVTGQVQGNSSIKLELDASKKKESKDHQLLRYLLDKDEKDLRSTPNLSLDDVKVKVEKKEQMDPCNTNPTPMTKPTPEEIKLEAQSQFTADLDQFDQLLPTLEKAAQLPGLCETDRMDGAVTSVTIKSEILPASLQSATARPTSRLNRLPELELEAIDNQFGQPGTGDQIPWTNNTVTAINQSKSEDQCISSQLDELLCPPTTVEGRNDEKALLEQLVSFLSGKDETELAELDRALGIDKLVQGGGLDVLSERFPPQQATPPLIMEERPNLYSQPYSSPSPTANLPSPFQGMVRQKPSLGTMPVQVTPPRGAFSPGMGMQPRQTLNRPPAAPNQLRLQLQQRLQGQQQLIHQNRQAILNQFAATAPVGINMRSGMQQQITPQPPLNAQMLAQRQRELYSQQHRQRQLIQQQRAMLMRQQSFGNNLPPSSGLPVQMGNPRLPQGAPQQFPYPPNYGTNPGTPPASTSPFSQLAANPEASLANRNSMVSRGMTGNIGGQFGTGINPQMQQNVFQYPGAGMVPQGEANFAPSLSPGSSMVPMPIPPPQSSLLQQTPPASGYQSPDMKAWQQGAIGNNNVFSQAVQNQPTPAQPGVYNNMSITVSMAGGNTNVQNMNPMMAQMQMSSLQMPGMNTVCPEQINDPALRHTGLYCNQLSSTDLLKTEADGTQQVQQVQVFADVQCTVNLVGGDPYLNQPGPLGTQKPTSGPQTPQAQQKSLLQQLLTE
For test [13], the target named is T3, Calpain-2 catalytic subunit (Sus scrofa, UniProt P43367).
T3 sequence (P43367 whole entry): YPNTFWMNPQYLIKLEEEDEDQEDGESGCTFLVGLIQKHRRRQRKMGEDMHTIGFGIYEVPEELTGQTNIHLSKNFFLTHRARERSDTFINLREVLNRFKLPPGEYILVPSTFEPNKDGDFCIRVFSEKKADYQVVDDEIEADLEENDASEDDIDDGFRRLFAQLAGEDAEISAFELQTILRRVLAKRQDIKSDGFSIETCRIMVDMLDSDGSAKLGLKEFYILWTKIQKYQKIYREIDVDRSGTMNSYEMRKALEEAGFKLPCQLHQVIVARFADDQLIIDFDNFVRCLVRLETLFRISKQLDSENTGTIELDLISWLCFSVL
The test can be described thus: pig calpain II inhibitor potency, dose response, biochemical, fluorogenic peptide substrate (AID 1420). It is filed as functional.

The target of test [14] is Peroxisome proliferator-activated receptor gamma/Nuclear receptor coactivator 2 (Homo sapiens, UniProt P37231). Type of test: functional.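 Note: agonist potency for raising coactivator recruitment to the receptor.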
In test [15] the target is Peroxisome proliferator-activated receptor gamma/Nuclear receptor coactivator 3 (Homo sapiens, UniProt P37231). Type of test: functional.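 Note: agonist potency for raising coactivator recruitment to the receptor.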
Chain of Peroxisome proliferator-activated receptor gamma/Nuclear receptor coactivator 3 (P37231 whole entry): as the sequence (P37231 whole entry) above
Chain of Peroxisome proliferator-activated receptor gamma/Nuclear receptor coactivator 3 (Q9Y6Q9 whole entry, further chain): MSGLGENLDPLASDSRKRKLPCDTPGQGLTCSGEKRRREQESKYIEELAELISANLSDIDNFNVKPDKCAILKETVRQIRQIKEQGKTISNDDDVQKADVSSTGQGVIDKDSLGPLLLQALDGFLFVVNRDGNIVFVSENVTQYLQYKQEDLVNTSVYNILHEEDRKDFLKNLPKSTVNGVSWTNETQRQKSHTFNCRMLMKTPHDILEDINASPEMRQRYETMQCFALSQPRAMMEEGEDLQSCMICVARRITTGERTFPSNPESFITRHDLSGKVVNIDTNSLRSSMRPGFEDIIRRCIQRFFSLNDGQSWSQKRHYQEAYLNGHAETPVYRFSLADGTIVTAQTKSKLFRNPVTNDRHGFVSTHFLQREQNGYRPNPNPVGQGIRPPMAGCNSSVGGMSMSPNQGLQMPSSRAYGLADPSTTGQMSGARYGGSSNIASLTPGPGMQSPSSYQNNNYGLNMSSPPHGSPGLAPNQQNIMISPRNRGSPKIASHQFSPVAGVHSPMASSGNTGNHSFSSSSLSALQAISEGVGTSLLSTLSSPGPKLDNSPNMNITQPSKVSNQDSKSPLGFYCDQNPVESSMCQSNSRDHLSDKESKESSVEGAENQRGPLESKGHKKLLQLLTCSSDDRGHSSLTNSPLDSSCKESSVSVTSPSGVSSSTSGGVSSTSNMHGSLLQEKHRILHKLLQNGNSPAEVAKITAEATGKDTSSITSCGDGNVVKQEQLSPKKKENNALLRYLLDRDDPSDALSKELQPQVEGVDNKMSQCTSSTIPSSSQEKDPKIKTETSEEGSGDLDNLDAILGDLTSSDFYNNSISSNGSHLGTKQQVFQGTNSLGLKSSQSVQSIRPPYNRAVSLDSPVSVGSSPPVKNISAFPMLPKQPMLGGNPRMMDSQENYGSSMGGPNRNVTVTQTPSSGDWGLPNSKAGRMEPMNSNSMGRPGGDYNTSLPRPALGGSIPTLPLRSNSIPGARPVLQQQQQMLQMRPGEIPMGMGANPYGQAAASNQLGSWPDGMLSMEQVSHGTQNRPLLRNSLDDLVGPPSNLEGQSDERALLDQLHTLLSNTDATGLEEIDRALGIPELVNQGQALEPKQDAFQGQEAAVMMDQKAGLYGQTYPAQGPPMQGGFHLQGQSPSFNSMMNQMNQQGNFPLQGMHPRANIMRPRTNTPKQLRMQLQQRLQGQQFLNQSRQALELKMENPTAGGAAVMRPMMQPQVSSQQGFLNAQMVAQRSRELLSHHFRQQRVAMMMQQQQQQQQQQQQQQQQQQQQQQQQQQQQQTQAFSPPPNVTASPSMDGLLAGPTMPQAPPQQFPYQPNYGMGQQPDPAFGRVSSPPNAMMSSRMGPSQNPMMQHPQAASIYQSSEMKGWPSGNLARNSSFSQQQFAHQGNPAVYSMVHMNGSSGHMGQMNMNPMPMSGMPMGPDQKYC
In test [16] the target is Melanin-concentrating hormone receptor 1 (Homo sapiens, UniProt Q99705). Nature of the test: Late-stage fluorescence-based counterscreen for antagonists of the G-protein coupled receptor 7 (GPR7): cell-based dose response assay to identify antagonists of the melanin-concentrating hormone receptor 1 (MCHR1). [Related pubchem assays (depositor defined):AID1861, AID1880, AID1952, AID2148, AID2251, AID2257, AID485339]. It is filed as functional.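 Note: stimulated with 30 nM MCH peptide agonist.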

In test [17] the test system is HEK293. The test can be described thus: cells. The following applies: Homo sapiens.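 Note: cells exposed to compound for 14 hours overnight before viability readout.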
In test [18] the target is Nucleotide-binding oligomerization domain-containing protein 2 (Homo sapiens, UniProt Q9HC29). The test can be described thus: PubChem AID 2334. Type of test: functional.
In test [19] the target is T4, Nucleotide-binding oligomerization domain-containing protein 1 (Homo sapiens, UniProt Q9Y239).
T4 sequence (Q9Y239 whole entry): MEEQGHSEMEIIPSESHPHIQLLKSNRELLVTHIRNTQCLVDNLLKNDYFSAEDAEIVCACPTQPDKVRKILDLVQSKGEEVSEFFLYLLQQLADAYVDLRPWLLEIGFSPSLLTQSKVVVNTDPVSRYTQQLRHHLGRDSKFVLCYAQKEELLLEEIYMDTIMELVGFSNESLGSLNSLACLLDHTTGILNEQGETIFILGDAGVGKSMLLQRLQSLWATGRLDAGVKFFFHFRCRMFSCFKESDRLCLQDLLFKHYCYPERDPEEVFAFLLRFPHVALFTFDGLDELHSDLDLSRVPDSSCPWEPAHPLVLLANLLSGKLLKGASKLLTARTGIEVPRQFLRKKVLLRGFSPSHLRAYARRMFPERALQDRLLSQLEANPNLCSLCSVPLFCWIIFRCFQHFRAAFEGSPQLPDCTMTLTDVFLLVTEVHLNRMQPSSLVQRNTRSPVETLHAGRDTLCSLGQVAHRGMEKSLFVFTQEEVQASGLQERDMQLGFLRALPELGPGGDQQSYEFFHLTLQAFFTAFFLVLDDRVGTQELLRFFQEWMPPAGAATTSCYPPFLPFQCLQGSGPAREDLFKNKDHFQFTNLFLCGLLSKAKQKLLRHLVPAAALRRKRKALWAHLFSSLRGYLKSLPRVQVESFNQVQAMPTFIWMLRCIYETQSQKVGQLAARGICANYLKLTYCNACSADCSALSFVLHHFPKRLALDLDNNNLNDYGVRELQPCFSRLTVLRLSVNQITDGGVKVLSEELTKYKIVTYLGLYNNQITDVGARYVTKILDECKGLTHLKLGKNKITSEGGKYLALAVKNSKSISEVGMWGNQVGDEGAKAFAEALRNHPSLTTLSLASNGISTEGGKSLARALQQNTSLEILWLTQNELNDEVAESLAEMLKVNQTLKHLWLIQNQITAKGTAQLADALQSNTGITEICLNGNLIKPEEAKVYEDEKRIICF
The test can be described thus: NOD1 signaling inhibitors, SAR follow-up, revised (AID 2333). It is filed as functional.

Test [20] addresses Tumor necrosis factor (Homo sapiens, UniProt P01375). The test can be described thus: TNFa-triggered NF-kB activation inhibitors, SAR follow-up, cell-based, revised (AID 2337). It is filed as functional.
For test [21], the target named is Bcl-2-like protein 10 (Homo sapiens, UniProt Q9HD36). The test can be described thus: displacers of TR3 peptide from Bcl-B, primary screen, selectivity assay for Bfl-1 inhibitor project, biochemical, fluorescence polarization, FITC-TR3 peptide (AID 748). (Fluorescence polarisation rises when a labelled molecule tumbles more slowly, as on binding a larger partner.)
Chain of Bcl-2-like protein 10 (Q9HD36 whole entry): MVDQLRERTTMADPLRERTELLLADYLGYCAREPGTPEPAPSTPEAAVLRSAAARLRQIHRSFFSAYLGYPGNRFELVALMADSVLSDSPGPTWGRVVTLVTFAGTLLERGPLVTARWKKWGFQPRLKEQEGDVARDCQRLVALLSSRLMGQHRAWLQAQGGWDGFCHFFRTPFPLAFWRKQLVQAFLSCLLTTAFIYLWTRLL

The source made the active and inactive calls.
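Throughout, for CC50: cells exposed to compound for 16 hours before readout.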

As for `CCCCc1c(O)nc(SCC(=O)Nc2ccc3c(c2)CCC3)nc1O`, the concentration giving a half-maximal response (EC50) in [1] was > 50 µM (active). Further, the half-maximal inhibitory concentration (IC50) in [2] was > 73.5 µM (not active); in test [3], > 59.6 µM (not active); in test [4], 7.61 µM (active).
`N#Cc1c(NCCO)ccc([N+](=O)[O-])c1NCCO`: the half-maximal effective concentration (EC50) in test [5] and in test [6] was > 55.7 µM (not active) throughout.
Regarding `Cc1ccc(S(=O)(=O)Nc2ccc3oc(=O)sc3c2)c(C)c1`, the results for the concentration giving a half-maximal response (EC50) in test [7] and in test [8] were 13.7 µM (active) and 12.8 µM (active), respectively.
As to `CCOC(=O)c1sc2nc(C)nc(Nc3ccccc3)c2c1C`, the CC50 in test [9] is > 99 µM (not active).
`Cc1no[n+]([O-])c1COc1ccccc1/C=C1\NC(=S)NC1=O`: the IC50 in test [10] and in [11] was > 50 µM (not active) each time.
As for `COCC(=O)Nc1cccc(Br)c1`, the half-maximal cytotoxic concentration (CC50) in test [9] is > 99 µM (not active).
Consider `Cc1ccccc1Oc1ccc(NC(=O)C2CC=CCC2C(=O)O)cc1` (stereo not drawn), for which the IC50 is > 73.5 µM (not active) in [2], > 59.6 µM (not active) in test [3] and 1.33 µM (active) in [4].
With `CN(C)CC(c1ccccc1)c1ccccc1`, the concentration for a half-maximal effect (EC50) in [5] and in [6] was > 55.7 µM (not active) each time.
As to `CCc1cc2c(=O)c(-c3nc(C)cs3)coc2cc1OC(C)C(=O)NCCO` (stereo not drawn), the EC50 in test [12], in [14] and in [15] was > 79.4 µM (not active) throughout. In test [13], the IC50 is reported as 3.22 µM (not active).
Regarding `COc1ccc(Oc2c(CO)cnn(-c3ccc(C(C)C)cc3)c2=O)cc1`, the 50% inhibitory concentration (IC50) in [16] is 7.4 µM (active).
Turning to `CC(C)C(=O)Nc1nc2ccccc2n1Cc1ccc(Cl)cc1`, the IC50 in [17] is > 20 µM (inactive); in [18] it was > 20 µM (inactive); in test [19] it was 16.7 µM (active); in test [20], > 20 µM (inactive).
With `CCN1C(=O)CS/C1=N/C1C2CC3CC(C2)CC1C3` (stereo not drawn), the EC50 was 11.4 µM (active) in test [7] and > 20 µM (not active) in test [8].
Turning to `CCOC(=O)c1sc2nccc(N(C)C)c2c1/N=C/N(C)C`, the EC50 in test [12], in [14] and in [15] was > 79.4 µM (not active) throughout.
Take `Cc1ccc(N2CN=c3s/c(=C\c4cccnc4)c(=O)n3C2)cc1`: the IC50 in test [21] is > 100 µM (inactive).
Turning to `c1nnnn1C12CC3CC(CC(C3)C1)C2`, in test [21], the IC50 is > 100 µM (inactive).

What is called EC50 is the concentration giving half of the maximal effect. For orientation: IC50 means the midpoint of a concentration-inhibition curve. By CC50 is commonly meant the concentration giving 50% cytotoxicity. Lower therefore signals greater toxicity to the cells.
